Entries after “also recorded” stand apart in the source; their conditions may differ.
Tests used:
[1] = tested on: plasma levels of norepinephrine; PVN p-ERK1/2; conditions: HF rats, cited from earlier work
[2] = Pharmacokinetics and organ levels of PD98059 following IV injection in healthy rats; assay type: in vivo
Protocol: 1: Pharmacokinetics of PD98059. Rats were anaesthetized using urethane and a canula was inserted in the femoral vein. A solution of PD98059 dissolved in 10% Tween 80 in sterile 1× DPBS at a concentration of 0.5 mg/ml (total volume 2 ml) was administered slowly by intravenous infusion. After 5, 15, 30, 60, 180, and 360 minutes, blood samples were withdrawn from rats. Major organs (liver, kidney, brain, and heart) were collected from rats after 1 and 3 hours (n=3/time point).
All blood samples were collected into 4 ml BD Vacutainer® blood collection tubes (K2-EDTA, Becton, Dickinson, and Company, Franklin Lakes, N.J.). Plasma samples were collected by centrifugation (3,300×g, 15 min), and frozen at −80° C. until analyzed. Plasma samples were thawed on ice, and a volume of 100 μl of plasma was transferred to a 15 ml tube, and spiked with 15 μl of the internal standard (IS) solution (10 μg/ml of 7-hydroxyfiavone in methanol). Collected organs were rinsed in PBS, then frozen at −80° C. For organs, a portion of each organ (200-400 mg) was accurately weighed and homogenized (Fisher Brand Bead Mill 4 Homogenizer, Hampton, N.H.) in 250 μl of 1× DPBS using 20-25 2.5 mm ceramic beads per sample, and spiked with 15 μl of the internal standard (IS) solution. One ml of cold acetonitrile was added to 100 μl of plasma samples or 400 μl of the tissue homogenate and vortexed for 1 min. The samples were kept on ice for 15 min to precipitate the proteins, then the tubes were centrifuged (4° C., 3,300×g, 10 min) and the supernatant was collected, and evaporated under nitrogen stream.
In the case of protocols 1 and 2, the residue in each tube was then dissolved in the mobile phase (described in the HPLC section below), centrifuged (12,000×g, 5 min), and the supernatant was injected in the HPLC and analyzed by the method described below. A standard curve was prepared using plasma and tissues collected from naive rats. These plasma or tissue homogenate samples were spiked with 15 μl of the IS solution as mentioned above, in addition to 15 μl of standard solutions of PD98059 in methanol at different concentrations. Pharmacokinetic parameters were calculated using PK Solver.
An Agilent HPLC workstation was used for sample analysis (Agilent Infinity 1100, Santa Clara, Calif.) that consisted of an Agilent quaternary pump, automatic injection port, and Agilent diode array detector (Agilent Corporation, Santa Clara, Calif.). A RP-C18 column was used for analysis (Waters Symmetry, 5 μm pore size, 4.6 mm×150 mm, Milford, Mass.). The mobile phase consisted of methanol: water 70:30 with 0.1% v/v trifluoroacetic acid, and the flow rate was 1 ml/min at room temperature. The detection wavelength was set to 275 nm.

MEK = conditions: Dudley et al.; cited from earlier work
[3] = tested on: PVN neuronal excitation and sympathetic nerve activity; conditions: cited from earlier work
[4] = In vitro drug release of PD98059-loaded microparticles (Examples 1/3, centrifugation and medium replacement); assay type: physicochemical; conditions: PD98059 powder; DPBS with 0.4% w/v Tween 80, 37° C.
Protocol: A weighed amount of the microparticles was suspended in 5 ml of the release medium (Dulbecco's phosphate buffered saline, DPBS, Life Science, Waltham, Mass.) that contains 0.4% w/v Tween 80 at an amount equivalent to 0.065 mg microparticles in 50 ml tube (n=3). The tubes were placed in an orbital shaker (New Brunswick Scientific, Edison, N.J.) operating at 300 rpm and 37° C. At pre-determined time points, the tube was centrifuged (1000×g for 5 min) and the whole volume of the release medium (5 ml) was removed and replaced completely with fresh medium in which the pellet was re-suspended. The concentration of PD98059 was measured in the samples using the HPLC method described below. The standard curve range was 0.125-10 μg/ml, and the r^2 value was 0.9998.
An Agilent Infinity 1100 HPLC (Santa Clara, Calif.) was used for to analyze PD98059 content and release of the microparticles. […] The flow rate used was 1 ml/min at room temperature, and the wavelength at which PD98059 was detected at 275 nm.
A weighed amount of the microparticles was suspended in 5 ml of the release medium (Dulbecco's phosphate buffered saline, DPBS, Life Science, Waltham, Mass.) that contains 0.4% w/v Tween 80 at an amount equivalent to 0.065 mg microparticles in 50 ml tube (n=3). […] The concentration of PD98059 was measured in the samples using the HPLC method described below. […]

**Q.** Which results are given for `COc1cccc(-c2cc(=O)c3ccccc3o2)c1N` [PD98059]?
**A.** plasma norepinephrine levels ([1]; ICV infusion for 4 weeks): significant reduction; also recorded: reduced; also recorded: normalized; PVN p-ERK1/2 ([1]; long term ICV infusion): successfully decreased; AUC0-t ([2]; IV injection of 1 mg of PD98059 in solution, non-compartmental analysis): 2378.7 ng·h/mL; brain PD98059 level at 1 hour ([2]; healthy rats, IV 1 mg): approximately 410 ng/g; brain PD98059 level at 3 hours ([2]; healthy rats, IV 1 mg): ~76 ng/g; drug levels in major organs (liver, kidney, brain, heart) ([2]; healthy rats, IV 1 mg, 1 and 3 hours): drug levels in the liver and kidney were comparatively higher than those in the brain and heart; crossing of the blood brain barrier ([2]; rats): a significant portion of the drug crossed the blood brain barrier; also recorded: found to cross the blood brain barrier; elimination half-life ([2]; rats): above 1 hour; elimination half-life in plasma ([2]; rats, IV injection of PD98059 solution, 1 mg): 1.22 h; pharmacokinetic model that fits the data ([2]; rats, IV, PK Solver): 2-compartment model; in vitro activity of MEK once PD98059 was removed from the medium (MEK): fully and instantaneously restored; heart rate ([3]; HF rats, 1-h ICV infusion, compared to SHAM or untreated animals): significantly decreased; PVN neuronal excitation and (renal) sympathetic nerve activity ([3]; heart failure rats, 1-hour ICV infusion): decreased; also recorded: inhibited; time for 80% of the unencapsulated drug to dissolve in the release medium [4]: 24 h

Source: patent US20210361578A1, “MEK1/2 INHIBITOR-LOADED MICROPARTICLE FORMULATION” (University of Iowa Research Foundation, priority 2020, published 2021)
